Tests used:
[1] = test system: Streptozotocin-induced diabetic pain model (diabetic rats); experiment: Pain relieving effect in streptozotocin-induced diabetic pain model; format: in vivo, rat; settings: 1 mg/kg orally; for Relief Rate: pain threshold by von Frey filaments after 1 hour, STZ diabetic rats; for inhibition rate (in words): STZ-induced diabetic pain model
Protocol: Streptozotocin (STZ)-administered rats are widely used as an insulin-dependent diabetes model. In this model, decreased pain thresholds in response to mechanical stimulation are observed as in diabetic neuropathy patients [British Journal of Pharmacology, 1997, Vol. 122, p. 1478-1482].
(1) Preparation of STZ-Induced Diabetes Model
A STZ solution was prepared as a 30 mg/mL solution by being dissolved in a 0.05 mol/L citric acid aqueous solution (pH 4 to 4.5). The STZ solution (30 mg/mL) was intraperitoneally administered in a 2 mL/kg volume to rats (60 mg/kg). Rats showing 250 mg/dL or higher blood glucose levels after 1 week from the STZ administration were obtained as diabetic rats.
(2) Measurement of Pain Relieving Effect
The evaluation of Pain was performed with von Frey filaments [product name: Touch Test Sensory Evaluator, Model Number Model 58011, Muromachi Kikai Co., Ltd.], and the results were calculated as pain thresholds. Specifically, the above diabetic rats were stimulated by the pressure applied to the underside of the feet with von Frey filaments of varying stimulus strengths, and the stimulus strength at which the […] withdrew their feet was determined. From the result, a 50% pain threshold (paw withdrawal threshold)(g) was calculated by using the Dixon's up and down method [Annual Review of Pharmacology and Toxicology, 1980, Vol. 20, p. 441-462].
Rats with a 50% pain threshold of less than 4 g were used for the evaluation of the test compounds. The test compounds were each suspended in a 0.5% methyl cellulose aqueous solution, and orally administered in a 5 mL/kg volume. After 1 hour, the pain threshold was measured using von Frey filaments. The pain relief rate of the test compound was calculated by using the following equation.

α2δ protein = α2δ protein (Rattus norvegicus, UniProt P54290); experiment: α2δ protein binding experiment ([3H]-gabapentin binding inhibition); settings: 0.1 μmol/L test compound; [3H]-gabapentin 20 nmol/L; rat cerebral cortex membrane fraction; read-out: inhibitory activity
α2δ protein, sequence (P54290 25-944 limits assumed): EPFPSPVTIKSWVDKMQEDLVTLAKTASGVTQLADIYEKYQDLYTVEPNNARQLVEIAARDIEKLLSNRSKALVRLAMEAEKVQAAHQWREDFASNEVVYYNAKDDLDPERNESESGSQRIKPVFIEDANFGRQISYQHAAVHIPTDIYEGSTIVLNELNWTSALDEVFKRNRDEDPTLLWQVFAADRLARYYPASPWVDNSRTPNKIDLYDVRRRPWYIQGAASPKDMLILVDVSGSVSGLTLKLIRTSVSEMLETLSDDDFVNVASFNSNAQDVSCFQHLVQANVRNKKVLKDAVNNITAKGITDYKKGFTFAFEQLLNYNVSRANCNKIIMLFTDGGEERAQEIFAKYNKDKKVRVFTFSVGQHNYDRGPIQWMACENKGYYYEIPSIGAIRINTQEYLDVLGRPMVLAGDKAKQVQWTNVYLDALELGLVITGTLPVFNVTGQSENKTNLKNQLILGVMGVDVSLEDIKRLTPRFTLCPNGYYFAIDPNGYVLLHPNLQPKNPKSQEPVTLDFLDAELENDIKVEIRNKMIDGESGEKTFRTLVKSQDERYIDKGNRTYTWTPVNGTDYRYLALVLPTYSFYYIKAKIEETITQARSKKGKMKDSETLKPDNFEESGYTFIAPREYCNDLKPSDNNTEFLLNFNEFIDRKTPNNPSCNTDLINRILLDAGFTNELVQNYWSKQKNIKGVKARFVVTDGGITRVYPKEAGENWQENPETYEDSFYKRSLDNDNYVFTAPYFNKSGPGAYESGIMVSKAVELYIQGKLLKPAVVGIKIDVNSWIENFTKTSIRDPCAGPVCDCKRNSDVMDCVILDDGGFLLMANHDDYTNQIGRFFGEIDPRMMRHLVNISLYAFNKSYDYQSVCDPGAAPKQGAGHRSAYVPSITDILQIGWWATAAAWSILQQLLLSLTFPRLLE
α2δ protein, sequence (P54290 945-1091 limits assumed): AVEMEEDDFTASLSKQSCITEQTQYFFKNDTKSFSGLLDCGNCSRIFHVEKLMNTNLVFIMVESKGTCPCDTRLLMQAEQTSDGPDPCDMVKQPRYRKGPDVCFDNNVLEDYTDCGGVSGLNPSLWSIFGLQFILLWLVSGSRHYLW
Protocol: Experiment was conducted according to the methods described in European Journal of Pharmacology, 1993, 244, p. 293-301, using the report of Woodruff G N et al. as a reference (Journal of Biological Chemistry, 1996, 271, p. 5768-5776).
(1) Preparation of Membrane Fraction from Rat Cerebral Cortex
A male SD rat was purchased at the age of 6 weeks, and kept for at least 7 days prior to experiment. The cerebral cortex was removed, and gently washed with Tris-sucrose buffer A (containing 0.32 mol/L sucrose, 5 mmol/L tris-acetate, 1 mmol/L ethylenediaminetetraacetic acid (EDTA), 1 mmol/L ethylene glycol tetraacetic acid (EGTA), and a protease inhibitor cocktail tablet, pH 7.4). The cerebral cortex was placed in Tris-sucrose buffer A, and homogenized in 15 strokes (250 rpm) using a teflon homogenizer to obtain a crude extract. The crude extract was centrifuged at 4° C. for 10 minutes at 2,000 rpm, and the supernatant was collected. After adding Tris-sucrose buffer A to the resulting precipitate, the same homogenization and centrifugation procedures as above were performed, and the resulting supernatant was mixed with the previously obtained supernatant to obtain a total collected supernatant. The total collected supernatant was centrifuged at 4° C. for 30 minutes at 20,000 rpm, and the supernatant (cytosolic fraction) was removed. Tris-acetate buffer A (containing 5 mmol/L tris-acetate, 1 mmol/L EDTA, 1 mmol/L EGTA, and a protease inhibitor cocktail tablet, pH 8.0) was added to the remaining precipitate (cell membrane fraction), and the mixture was stirred for 1 hour. The stirred extract was centrifuged at 4° C. for 30 minutes at 26,500 rpm, and Tris-sucrose buffer B (containing 1.2 mol/L sucrose, 5 mmol/L tris-acetate, pH 7.4) was added to the resulting precipitate. The mixture was dispensed in centrifuge tubes in 15-mL portions, and 9 mL of Tris-sucrose buffer C (containing 0.9 mol/L sucrose, 5 mmol/L tris-acetate, pH 7.4) was gently layered on the mixture in each centrifuge tube without disrupting the interface. The centrifuge tubes were centrifuged at 4° C. for 90 minutes at 43,000 rpm, and the membrane fraction at the interface of the Tris-sucrose buffer B and the Tris-sucrose buffer C was collected with a Pasteur pipette. After adding Tris-acetate buffer B (5 mmol/L tris-acetate, pH 7.4) to the collected membrane fraction, the mixture was centrifuged at 4° C. for 20 minutes at 26,500 rpm. The resulting precipitate was resuspended in Tris-acetate buffer B to obtain a cerebral cortex membrane fraction, and the cerebral cortex membrane fraction was stored at −80° C. until use in the binding experiment. For the binding experiment, the stored suspension was centrifuged at 4° C. for 30 minutes at 32,000 rpm, and Binding buffer [a 0.1 w/v % bovine serum albumin (BSA)-containing 10 mmol/L 4-(2-hydroxyethyl)-1-piperazineethanesulfonic acid (HEPES) solution adjusted to pH 7.4 with sodium hydroxide] for the binding experiment was added to the obtained precipitate, and resuspended with a syringe equipped with an injection needle to adjust to the desired concentration.
(2) [^3H]-Gabapentin Binding Inhibition Experiment
A test compound (20 μL) diluted to 5 times of the final concentration with Binding buffer, [^3H]-gabapentin diluted to 100 nmol/L with binding buffer [20 μL (final concentration 20 nmol/L)], and the rat cerebral cortex membrane fraction (60 μL; 12 μg membrane fraction) obtained in the (1) above were added to each well of a 96-well round-bottom plate. After being sufficiently mixed, these were allowed to react at room temperature for 1 hour. After the reaction, the reaction sample was suction filtered using a filter plate with 50 μL/well of 0.3 vol % polyethyleneimine added, and a cell harvester. The filter was then washed with ice-cooled Wash buffer (100 mmol/L NaCl, 0.1 w/v % BSA). […]

inhibition at 0.1 µM (α2δ protein)	Structure (SMILES)	Relief Rate [1]	inhibition rate (in words) [1]
–	CNc1ncc2c(n1)N1CCC[C@H]1CN(c1cccc3c1C(=O)C(=O)N3C)C2=O [Compound 1-146, (S)-9-Methylamino-5-(1-methylindoline-2,3-dion-4-yl)-1,2,3,3a,4,5-hexahydro-5,8,10,10b-tetraazabenzo[e]azulen-6-one, reference compound]	6%	–
–	CNc1ncc2c(n1)N1CCC[C@H]1CN(c1cccn3c(=O)c(C)c(C)nc13)C2=O [Compound 8, (S)-6-(2,3-Dimethyl-4-oxo-4H-pyrido[1,2-a]pyrimidin-9-yl)-2-methylamino-6,7,7a,8,9,10-hexahydro-5H-pyrimido[5,4-f]pyrrolo[1,2-a][1,4]diazepin-5-one]	85%	good inhibition rate
–	CNc1ncc2c(n1)N1CCC[C@H]1CN(c1cccc3c(=O)n(C)cnc13)C2=O [Compound 10, (S)-6-(3-Methyl-4-oxo-3,4-dihydroquinazolin-8-yl)-2-methylamino-6,7,7a,8,9,10-hexahydro-5H-pyrimido[5,4-f]pyrrolo[1,2-a][1,4]diazepin-5-one]	91%	good inhibition rate
≥ 50%	CCNc1ncc2c(n1)N1CCC[C@H]1CN(c1cccc3c1CCC(=O)N3C)C2=O [Compound 83, (S)-2-Ethylamino-6-(1-methyl-2-oxo-1,2,3,4-tetrahydroquinolin-5-yl)-6,7,7a,8,9,10-hexahydro-5H-pyrimido[5,4-f]pyrrolo[1,2-a][1,4]diazepin-5-one]	–	–
≥ 50%	Cn1cnc2cccc(N3C[C@@H]4CCCN4c4nc(N)ncc4C3=O)c2c1=O [Compound 85, (S)-2-Amino-6-(3-methyl-4-oxo-3,4-dihydroquinazolin-5-yl)-6,7,7a,8,9,10-hexahydro-5H-pyrimido[5,4-f]pyrrolo[1,2-a][1,4]diazepin-5-one]	–	–
≥ 50%	CCNc1ncc2c(n1)N1CCC[C@H]1CN(c1csc3c(=O)n(C)ccc13)C2=O [Compound 90, (S)-3-(2-Ethylamino-5-oxo-7a,8,9,10-tetrahydro-5H-pyrimido[5,4-f]pyrrolo[1,2-a][1,4]diazepin-6(7H)-yl)-6-methylthieno[2,3-c]pyridin-7(6H)-one]	–	–
≥ 50%	CNc1ncc2c(n1)N1CCC[C@H]1CN(c1csc3c(=O)n(C)ccc13)C2=O [Compound 91, (S)-6-Methyl-3-(2-methylamino-5-oxo-7a,8,9,10-tetrahydro-5H-pyrimido[5,4-f]pyrrolo[1,2-a][1,4]diazepin-6(7H)-yl)thieno[2,3-c]pyridin-7(6H)-one]	–	–
≥ 50%	CCNc1ncc2c(n1)N1CCC[C@H]1CN(c1cn(C)c3c(=O)n(C)ccc13)C2=O [Compound 93, (S)-6-(1,6-Dimethyl-7-oxo-6,7-dihydro-1H-pyrrolo[2,3-c]pyridin-3-yl)-2-ethylamino-6,7,7a,8,9,10-hexahydro-5H-pyrimido[5,4-f]pyrrolo[1,2-a][1,4]diazepin-5-one]	–	–
≥ 50%	CCNc1ncc2c(n1)N1C[C@H](F)C[C@H]1CN(c1cccc3c(=O)n(C)cnc13)C2=O [Compound 115, (7aS,9R)-2-Ethylamino-9-fluoro-6-(3-methyl-4-oxo-3,4-dihydroquinazolin-8-yl)-6,7,7a,8,9,10-hexahydro-5H-pyrimido[5,4-f]pyrrolo[1,2-a][1,4]diazepin-5-one]	–	–
≥ 50%	CCNc1ncc2c(n1)N1C[C@@H](OC)C[C@H]1CN(c1cccc3c(=O)n(C)cnc13)C2=O [Compound 117, (7aS,9S)-2-Ethylamino-9-methoxy-6-(3-methyl-4-oxo-3,4-dihydroquinazolin-8-yl)-6,7,7a,8,9,10-hexahydro-5H-pyrimido[5,4-f]pyrrolo[1,2-a][1,4]diazepin-5-one]	–	–
≥ 50%	CCNc1ncc2c(n1)N1C[C@H](O)C[C@H]1CN(c1cccc3c(=O)n(C)cnc13)C2=O [Compound 118, (7aS,9R)-2-Ethylamino-9-hydroxy-6-(3-methyl-4-oxo-3,4-dihydroquinazolin-8-yl)-6,7,7a,8,9,10-hexahydro-5H-pyrimido[5,4-f]pyrrolo[1,2-a][1,4]diazepin-5-one]	–	–
